Experiment [1] addresses T1, recombinant human cIAP1-BIR3 protein (Homo sapiens, UniProt Q13490).
T1 construct: recombinant human cIAP1-BIR3 protein; purchased Reaction biology APT-11-370
In words: Recombinant human c-IAP1-BIR3 biochemical assay (HTRF, peptide displacement). The settings on record: 1.2 nM cIAP1-BIR3, 3 nM AbuRPF-K(5-Fam)-NH2 peptide, read-out: Protein binding IC50 (nM) c-IAP1. In short, it runs like this: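 1.2 nM cIAP1-BIR3 preincubated 1 h at room temperature with compound (10 points, 4-fold, top 10 uM) in 20 mM HEPES pH 7.5, 50 mM NaCl, 1 mM DTT; 3 nM AbuRPF-K(5-Fam)-NH2 then added for 1 h, then anti-6His Tb cryptate for 1 h. 520/490 nm ratio; IC50 by four-parameter logistic fit.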
For orientation: Time-resolved FRET reads energy transfer from a long-lived donor to a nearby acceptor.

In experiment [2] the target is T2, recombinant human cIAP2-BIR3 protein (Homo sapiens, UniProt Q13489).
T2 construct: recombinant human cIAP2-BIR3 protein; purchased Reaction biology APT-11-372
T2 sequence (Q13489 238-349 limits assumed): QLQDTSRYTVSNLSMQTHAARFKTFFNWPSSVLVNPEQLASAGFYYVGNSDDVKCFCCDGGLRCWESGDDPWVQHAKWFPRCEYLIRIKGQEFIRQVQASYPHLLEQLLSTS
As to the kind of experiment: Recombinant human c-IAP2-BIR3 biochemical assay (HTRF, peptide displacement). To be noted: 3.7 nM cIAP2-BIR3, 3.7 nM AbuRPF-K(5-Fam)-NH2 peptide, read-out: Protein binding IC50 (nM) c-IAP2. The procedure, abridged: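 3.7 nM protein pre-incubated 1 h at room temperature with compounds (top 10 uM, 4-fold, 10 points) in 20 mM HEPES pH 7.5, 50 mM NaCl, 0.005% Tween-20, 1 mM DTT. Then 3.7 nM AbuRPF-K(5-Fam)-NH2 for 1 h, then anti-6His Tb cryptate 1 h. IC50 from 520/490 nm HTRF ratio, four-parameter logistic fit.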

In experiment [3] the target is T3, recombinant human XIAP-BIR3 protein (Homo sapiens, UniProt P98170).
T3 construct: recombinant human XIAP-BIR3 protein; purchased Reaction biology APT-11-374
T3 sequence (P98170 241-356 limits assumed): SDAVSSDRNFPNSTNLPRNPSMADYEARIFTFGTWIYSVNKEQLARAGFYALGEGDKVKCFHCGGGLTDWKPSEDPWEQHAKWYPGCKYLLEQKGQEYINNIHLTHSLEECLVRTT
In words: Recombinant human XIAP-BIR3 biochemical assay (HTRF, peptide displacement). To be noted: 3.7 nM XIAP-BIR3, 7.6 nM AbuRPF-K(5-Fam)-NH2 peptide, read-out: Protein binding IC50 (nM) XIAP. In short, it runs like this: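 3.7 nM His-tagged XIAP-BIR3 was preincubated 1 h RT with compound (top 10 µM, 4-fold, 10 points) in 20 mM HEPES pH 7.5, 50 mM NaCl, 0.005% Tween-20, 1 mM DTT. 7.6 nM AbuRPF-K(5-Fam)-NH2 peptide was then added, followed by anti-6His Tb cryptate, 1 h each. HTRF 520/490 nm ratio; four-parameter logistic IC50.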

The structures appear in SMILES notation.

T1 sequence (Q13490 253-363 limits assumed): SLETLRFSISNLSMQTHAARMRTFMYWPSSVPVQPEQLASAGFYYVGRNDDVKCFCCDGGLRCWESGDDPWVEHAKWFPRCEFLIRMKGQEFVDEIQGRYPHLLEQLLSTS

For the compound `CC(C)[C@H]1COc2ncc(Cc3ccc(F)cc3)cc2N1C(=O)CN1C[C@@H](C)NC[C@@H]1CN1CCOC[C@H]1C` [Compound 47, 1-((S)-7-(4-fluorobenzyl)-2-isopropyl-2,3-dihydro-1H-pyrido[2,3-b][1,4]oxazin-1-yl)-2-((2R,5R)-5-methyl-2-(((R)-3-methylmorpholino)methyl)piperazin-1-yl)ethan-1-one], the IC50 (in general, the concentration that gives 50% inhibition) in experiment [1] was determined as 0.57 nM; in experiment [2] it was 1.43 nM; in experiment [3] it was 84 nM.
Taken in the same sequence, the figures for `C[C@@H]1CN(CC(=O)N2c3cc(Cc4ccc(F)cc4)c(NS(=O)(=O)C4CC4)nc3OC[C@@H]2C)[C@@H](CN2[C@H](C)COC[C@H]2C)CN1` [Compound 123, N—((S)-1-(2-((2R,5R)-2-(((3R,5R)-3,5-dimethylmorpholino)methyl)-5-methylpiperazin-1-yl)acetyl)-7-(4-fluorobenzyl)-2-methyl-2,3-dihydro-1H-pyrido[2,3-b][1,4]oxazin-6-yl)cyclopropanesulfonamide] were 0.2 nM, 0.35 nM and 4.4 nM.
Consider `C[C@@H]1CN(CC(=O)N2c3cc(Cc4ccc(F)cc4)c(C(=O)N4CCC(F)(F)CC4)nc3OC[C@@H]2C)[C@@H](CN2[C@H](C)COC[C@H]2C)CN1` [Compound 103, 1-((S)-6-(4,4-difluoropiperidine-1-carbonyl)-7-(4-fluorobenzyl)-2-methyl-2,3-dihydro-1H-pyrido[2,3-b][1,4]oxazin-1-yl)-2-((2R,5R)-2-(((3R,5R)-3,5-dimethylmorpholino)methyl)-5-methylpiperazin-1-yl)ethan-1-one], for which the IC50 was found to be 0.24 nM in experiment [1], 0.43 nM in experiment [2] and 5.1 nM in experiment [3].
Take `C[C@@H]1CN(CC(=O)N2c3cc(Cc4ccc(F)cc4)c(C(=O)NC[C@@H]4CCCO4)nc3OC[C@@H]2C)[C@@H](CN2[C@H](C)COC[C@H]2C)CN1` [Compound 93]: the IC50 was 0.19 nM in experiment [1], 0.46 nM in experiment [2] and 4.6 nM in experiment [3].
On the same counts, the results for `C[C@@H]1CN(CC(=O)N2c3cc(Cc4ccc(F)cc4)c(C(=O)NCC4CCOCC4)nc3OC[C@@H]2C)[C@@H](CN2[C@H](C)COC[C@H]2C)CN1` [Example 77, (S)-1-(2-((2R,5R)-2-(((3R,5R)-3,5-dimethylmorpholino)methyl)-5-methylpiperazin-1-yl)acetyl)-7-(4-fluorobenzyl)-2-methyl-N-((tetrahydro-2H-pyran-4-yl)methyl)-2,3-dihydro-1H-pyrido[2,3-b][1,4]oxazine-6-carboxamide] are 0.2 nM, 0.28 nM and 2.6 nM.
Taken in the same sequence, the figures for `C[C@@H]1CN(CC(=O)N2CCOc3nc(Br)c(Cc4ccc(F)cc4)cc32)[C@@H](CN2CCOC[C@H]2C)CN1` [Compound 4, 1-(6-bromo-7-(4-fluorobenzyl)-2,3-dihydro-1H-pyrido[2,3-b][1,4]oxazin-1-yl)-2-((2R,5R)-5-methyl-2-(((R)-3-methylmorpholino)methyl)piperazin-1-yl)ethan-1-one] were 0.5 nM, 0.92 nM and 17 nM.
Regarding `C[C@@H]1CN(CC(=O)N2c3cc(Cc4ccc(F)cc4)c(NCC(F)(F)F)nc3OC[C@@H]2C)[C@@H](CN2[C@H](C)COC[C@H]2C)CN1` [Compound 112, 2-((2R,5R)-2-(((3R,5R)-3,5-dimethylmorpholino)methyl)-5-methylpiperazin-1-yl)-1-((S)-7-(4-fluorobenzyl)-2-methyl-6-((2,2,2-trifluoroethyl)amino)-2,3-dihydro-1H-pyrido[2,3-b][1,4]oxazin-1-yl)ethan-1-one], the values for the half-maximal inhibitory concentration (IC50) in experiment [1], in experiment [2] and in experiment [3] were 0.34 nM, 0.63 nM and 4.6 nM, respectively.
On to `COCCNC(=O)c1nc2c(cc1Cc1ccc(F)cc1)N(C(=O)CN1C[C@@H](C)NC[C@@H]1CN1[C@H](C)COC[C@H]1C)[C@@H](C)CO2` [Example 66, (S)-1-(2-((2R,5R)-2-(((3R,5R)-3,5-dimethylmorpholino)methyl)-5-methylpiperazin-1-yl)acetyl)-7-(4-fluorobenzyl)-N-(2-methoxyethyl)-2-methyl-2,3-dihydro-1H-pyrido[2,3-b][1,4]oxazine-6-carboxamide], for which the IC50 in experiment [1] was determined as 0.25 nM; in experiment [2], 0.52 nM; in experiment [3] it was 5.9 nM.
On the same counts, the results for `C[C@@H]1CN(CC(=O)N2CCOc3nc(CO)c(Cc4ccc(F)cc4)cc32)[C@@H](CN2CCOC[C@H]2C)CN1` [Compound 8, 1-(7-(4-fluorobenzyl)-6-(hydroxymethyl)-2,3-dihydro-1H-pyrido[2,3-b][1,4]oxazin-1-yl)-2-((2R,5R)-5-methyl-2-(((R)-3-methylmorpholino)methyl)piperazin-1-yl)ethan-1-one] are 1 nM, 2.9 nM and 45 nM.
Taken in the same sequence, the figures for `C[C@@H]1CN(CC(=O)N2CC(C)(C)Oc3nc(Br)c(Cc4ccc(F)cc4)cc32)[C@@H](CN2CCOC[C@H]2C)CN1` [Compound 12, 1-(6-bromo-7-(4-fluorobenzyl)-3,3-dimethyl-2,3-dihydro-1H-pyrido[2,3-b][1,4]oxazin-1-yl)-2-((2R,5R)-5-methyl-2-(((R)-3-methylmorpholino)methyl)piperazin-1-yl)ethan-1-one] were 16 nM, 44 nM and 561 nM.
With `COC[C@H]1COc2nc(CO)c(Cc3ccc(F)cc3)cc2N1C(=O)CN1C[C@@H](C)NC[C@@H]1CN1CCOC[C@H]1C` [Compound 57, 1-((S)-7-(4-fluorobenzyl)-6-(hydroxymethyl)-2-(methoxymethyl)-2,3-dihydro-1H-pyrido[2,3-b][1,4]oxazin-1-yl)-2-((2R,5R)-5-methyl-2-(((R)-3-methylmorpholino)methyl)piperazin-1-yl)ethan-1-one], the IC50 in experiment [1] turned out to be 1.2 nM; in experiment [2], 1.9 nM; in experiment [3] it was 95 nM.
On the same counts, the results for `CCOC[C@H]1COc2ncc(Cc3ccc(F)cc3)cc2N1C(=O)CN1C[C@@H](C)NC[C@@H]1CN1CCOC[C@H]1C` [Compound 37, 1-((S)-2-(ethoxymethyl)-7-(4-fluorobenzyl)-2,3-dihydro-1H-pyrido[2,3-b][1,4]oxazin-1-yl)-2-((2R,5R)-5-methyl-2-(((R)-3-methylmorpholino)methyl)piperazin-1-yl)ethan-1-one] are 0.29 nM, 0.66 nM and 43 nM.
Consider `CC(C)NC(=O)c1nc2c(cc1Cc1ccc(F)cc1)N(C(=O)CN1C[C@@H](C)NC[C@@H]1CN1[C@H](C)COC[C@H]1C)[C@@H](C)CO2` [Example 69, (S)-1-(2-((2R,5R)-2-(((3R,5R)-3,5-dimethylmorpholino)methyl)-5-methylpiperazin-1-yl)acetyl)-7-(4-fluorobenzyl)-N-isopropyl-2-methyl-2,3-dihydro-1H-pyrido[2,3-b][1,4]oxazine-6-carboxamide], for which the IC50 is 0.16 nM in experiment [1], 0.37 nM in experiment [2] and 3.7 nM in experiment [3].
Taken in the same sequence, the figures for `C[C@@H]1CN(CC(=O)N2c3cc(Cc4ccc(F)cc4)c(C(=O)NC4CC4)nc3OC[C@@H]2C)[C@@H](CN2[C@H](C)COC[C@H]2C)CN1` [Example 63] were 0.17 nM, 0.23 nM and 3.2 nM.
Taken in the same sequence, the figures for `C[C@@H]1CN(CC(=O)N2c3cc(Cc4ccc(F)cc4)c(C(=O)NCCN4CCOCC4)nc3OC[C@@H]2C)C(CN2[C@H](C)COC[C@H]2C)CN1` (stereo partly drawn) [Example 75, (5)-1-(2-((2R,5R)-2-(((3R,5R)-3,5-dimethylmorpholino)methyl)-5-methylpiperazin-1-yl)acetyl)-7-(4-fluorobenzyl)-2-methyl-N-(2-morpholinoethyl)-2,3-dihydro-1H-pyrido[2,3-b][1,4]oxazine-6-carboxamide] were 0.2 nM, 0.54 nM and 6.5 nM.
Taken in the same sequence, the figures for `CCNc1nc2c(cc1Cc1ccc(F)cc1)N(C(=O)CN1C[C@@H](C)NC[C@@H]1CN1[C@H](C)COC[C@H]1C)[C@@H](C)CO2` [Compound 111, 2-((2R,5R)-2-(((3R,5R)-3,5-dimethylmorpholino)methyl)-5-methylpiperazin-1-yl)-1-((S)-6-(ethylamino)-7-(4-fluorobenzyl)-2-methyl-2,3-dihydro-1H-pyrido[2,3-b][1,4]oxazin-1-yl)ethan-1-one] were 0.25 nM, 0.7 nM and 13.9 nM.

For the origin of these results see patent US12583866B2, “Pyrido[2,3-b][1,4]oxazines or tetrahydropyrido[2,3-b][1,4]oxazepines as IAP antagonists” (BEIGENE, LTD., priority 2020, dated 2026).
